Laboratory results: ChEMBL document CHEMBL1201862, “PubChem BioAssay data set” (2004)
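The compound was tested at five concentrations on cells cultured in 96-well plates, with a 48-hour exposure period. Here, GI50 denotes the concentration required for 50% inhibition of growth.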 Activity calls are given as the source filed them. No stated cut-off is given here; in the data, active = GI50 up to about 1.1 µM and inactive = higher.

Columns and labels:
Assay in all cases: NCI anticancer screen, dose series, 48 h
OVCAR-5 = test system: OVCAR-5
786-0 = test system: 786-0
A549 = test system: A549
ACHN = test system: ACHN
PC-3 = test system: PC-3
NCI/ADR-RES = test system: NCI/ADR-RES
OVCAR-8 = test system: OVCAR-8
SR = test system: SR
SF-295 = test system: SF-295
SK-MEL-28 = test system: SK-MEL-28
UO-31 = test system: UO-31
HL-60 = test system: HL-60
CCRF-CEM = test system: CCRF-CEM
SN12C = test system: SN12C
LOX IMVI = test system: LOX IMVI
IGROV-1 = test system: IGROV-1
HT-29 = test system: HT-29
NCI-H226 = test system: NCI-H226
MDA-MB-435 = test system: MDA-MB-435
K562 = test system: K562
RXF 393 = test system: RXF 393
KM12 = test system: KM12
Hs-578T = test system: Hs-578T
SF-539 = test system: SF-539
A498 = test system: A498
U-251 = test system: U-251
HOP-92 = test system: HOP-92
T47D = test system: T47D
UACC-62 = test system: UACC-62
MOLT-4 = test system: MOLT-4
MCF7 = test system: MCF7
SF-268 = test system: SF-268
TK-10 = test system: TK-10
SW-620 = test system: SW-620
M14 = test system: M14
NCI-H23 = test system: NCI-H23
COLO 205 = test system: COLO 205
RPMI-8226 = test system: RPMI-8226
MDA-MB-231 = test system: MDA-MB-231
CAKI-1 = test system: CAKI-1
HCC 2998 = test system: HCC 2998
HOP-62 = test system: HOP-62
OVCAR-3 = test system: OVCAR-3
SK-OV-3 = test system: SK-OV-3
SK-MEL-2 = test system: SK-MEL-2
NCI-H460 = test system: NCI-H460
MDA-N = test system: MDA-N
SK-MEL-5 = test system: SK-MEL-5
HCT-15 = test system: HCT-15
DU-145 = test system: DU-145
SNB-75 = test system: SNB-75
SNB-19 = test system: SNB-19
NCI-H522 = test system: NCI-H522
HCT-116 = test system: HCT-116
EKVX = test system: EKVX
UACC-257 = test system: UACC-257

With `COC(=O)C1CCC(=O)N1C(c1ccc(OC)cc1)c1cc(OC)c(OC)c(OC)c1` (centres undefined) the GI50 (OVCAR-5) was 0.592 µM (active), the GI50 (786-0) was 0.507 µM (active) and the GI50 (A549) was 0.449 µM (active). The GI50 (ACHN) was 0.52 µM (active), the GI50 (PC-3) was 0.288 µM (active) and the GI50 (NCI/ADR-RES) was 0.258 µM (active). For the same molecule, the GI50 (OVCAR-8) was 0.348 µM (active), the GI50 (SR) was 0.18 µM (active) and the GI50 (SF-295) was 0.0762 µM (active). The GI50 (SK-MEL-28) was > 100 µM (inactive), the GI50 (UO-31) was 1.19 µM (inactive) and the GI50 (HL-60) was 0.245 µM (active). The GI50 (CCRF-CEM) was 0.311 µM (active), the GI50 (SN12C) was 0.531 µM (active) and the GI50 (LOX IMVI) was 0.356 µM (active). For the same molecule, the GI50 (IGROV-1) was 0.274 µM (active), the GI50 (HT-29) was 0.255 µM (active) and the GI50 (NCI-H226) was 0.324 µM (active). The GI50 (MDA-MB-435) was 0.057 µM (active), the GI50 (K562) was 0.256 µM (active) and the GI50 (RXF 393) was 0.0545 µM (active). For the same molecule, the GI50 (KM12) was 0.146 µM (active), the GI50 (Hs-578T) was 0.184 µM (active) and the GI50 (SF-539) was 0.274 µM (active). The GI50 (A498) was 0.705 µM (active), the GI50 (U-251) was 0.364 µM (active) and the GI50 (HOP-92) was > 100 µM (inactive). For the same molecule, the GI50 (T47D) was > 100 µM (inactive), the GI50 (UACC-62) was 0.163 µM (active) and the GI50 (MOLT-4) was 0.39 µM (active). The GI50 (MCF7) was 0.307 µM (active), the GI50 (SF-268) was 0.625 µM (active) and the GI50 (TK-10) was > 37.8 µM (inactive). For the same molecule, the GI50 (SW-620) was 0.384 µM (active), the GI50 (M14) was 0.322 µM (active) and the GI50 (NCI-H23) was 0.553 µM (active). The GI50 (COLO 205) was 0.292 µM (active), the GI50 (RPMI-8226) was 0.239 µM (active) and the GI50 (MDA-MB-231) was 3.24 µM (inactive). The GI50 (CAKI-1) was 0.313 µM (active), the GI50 (HCC 2998) was 0.249 µM (active) and the GI50 (HOP-62) was 0.378 µM (active). The GI50 (OVCAR-3) was 0.261 µM (active), the GI50 (SK-OV-3) was 0.968 µM (active) and the GI50 (SK-MEL-2) was 0.649 µM (active). The GI50 (NCI-H460) was 0.33 µM (active), the GI50 (MDA-N) was 0.104 µM (active) and the GI50 (SK-MEL-5) was 0.252 µM (active). The GI50 (HCT-15) was 0.381 µM, the GI50 (DU-145) was 0.306 µM (active) and the GI50 (SNB-75) was 0.389 µM (active). The GI50 (SNB-19) was 0.531 µM (active), the GI50 (NCI-H522) was 0.047 µM (active) and the GI50 (HCT-116) was 0.324 µM (active).

In the case of `O=C1C=CC2C3C(=O)N(c4ccccc4)C(=O)C3C1N2Cc1ccccc1` (centres undefined), the GI50 (NCI-H226) is reported as 8.07 µM (inactive), the GI50 (Hs-578T) is reported as 3.51 µM (inactive) and the GI50 (COLO 205) is reported as 3.1 µM (inactive). The GI50 (HOP-62) was 3.72 µM (inactive).

In the case of `CC(=O)c1c(-c2cccc3ccccc23)c(C#N)c(=S)n(C2OC(CO)C(O)C(O)C2O)c1-c1ccccc1` (centres undefined), the GI50 (EKVX) is reported as 0.0509 µM (active) and the GI50 (HOP-92) is reported as 13.5 µM (inactive).

With `NC(CC(=O)OCc1ccccc1)C(=O)OCc1ccccc1` (centres undefined) the GI50 (OVCAR-5) was > 100 µM (inactive), the GI50 (786-0) was > 100 µM (inactive) and the GI50 (A549) was > 100 µM (inactive). For the same molecule, the GI50 (ACHN) was > 100 µM (inactive), the GI50 (PC-3) was > 100 µM (inactive) and the GI50 (EKVX) was > 100 µM (inactive). The GI50 (NCI/ADR-RES) was > 100 µM (inactive), the GI50 (OVCAR-8) was > 100 µM (inactive) and the GI50 (SR) was > 100 µM (inactive). The GI50 (SF-295) was > 100 µM (inactive), the GI50 (SK-MEL-28) was > 100 µM (inactive) and the GI50 (UO-31) was 69.5 µM (inactive). For the same molecule, the GI50 (CCRF-CEM) was > 100 µM (inactive), the GI50 (SN12C) was > 100 µM (inactive) and the GI50 (LOX IMVI) was > 100 µM (inactive). The GI50 (IGROV-1) was > 100 µM (inactive), the GI50 (UACC-257) was > 100 µM (inactive) and the GI50 (MDA-MB-435) was > 100 µM (inactive). The GI50 (KM12) was > 100 µM (inactive), the GI50 (Hs-578T) was 60.4 µM (inactive) and the GI50 (SF-539) was > 100 µM (inactive). For the same molecule, the GI50 (T47D) was > 100 µM (inactive), the GI50 (UACC-62) was > 100 µM (inactive) and the GI50 (MCF7) was > 100 µM (inactive). For the same molecule, the GI50 (SF-268) was > 100 µM (inactive), the GI50 (TK-10) was > 100 µM (inactive) and the GI50 (SW-620) was > 100 µM (inactive). The GI50 (M14) was > 100 µM (inactive), the GI50 (NCI-H23) was > 100 µM (inactive) and the GI50 (COLO 205) was > 100 µM (inactive). For the same molecule, the GI50 (RPMI-8226) was > 100 µM (inactive), the GI50 (CAKI-1) was 63.1 µM (inactive) and the GI50 (HCC 2998) was 33.2 µM (inactive). For the same molecule, the GI50 (HOP-62) was > 100 µM (inactive), the GI50 (OVCAR-3) was > 100 µM (inactive) and the GI50 (SK-MEL-2) was > 100 µM (inactive). The GI50 (NCI-H460) was > 100 µM (inactive), the GI50 (MDA-N) was > 100 µM (inactive) and the GI50 (SK-MEL-5) was > 100 µM (inactive). For the same molecule, the GI50 (HCT-15) was over 100 µM, the GI50 (DU-145) was > 100 µM (inactive) and the GI50 (SNB-19) was > 100 µM (inactive). For the same molecule, the GI50 (NCI-H522) was > 100 µM (inactive) and the GI50 (HCT-116) was > 100 µM (inactive).
